Test results reported in patent US5684030A, “2-substituted benzimidazole derivatives” (American Home Products Corporation, priority 1995, dated 1997).
pIC50: −log10 of the molar value.

Tests used:
[1] = test system: porcine aortic smooth muscle cells; experiment: Inhibition of serum-stimulated porcine aortic smooth muscle cell proliferation (3H-thymidine); assay type: cell-based; settings: Sus scrofa, 24-36 hours at 37° C., assayed at 1, 10, and 100 μM, read-out: Porcine Smooth Muscle Cell Antiproliferation IC50 or % Inhibition at × Concentration, Serum
Method: (§1) The ability of the compounds of the present invention to inhibit smooth muscle cell proliferation was established using isolated porcine aortic smooth muscle cells in a modification of the procedure of Castellot et al. J. Biol. Chem 257(19) 11256 (1982), as follows:
(§2) Fresh porcine aortas, scrupulously cleansed of fatty tissue, are rinsed in sterile phosphate-buffered saline with 2% antibiotic-antimycotic (100×) liquid (10,000 units of penicillin (base), 10,000 μg of streptomycin (base), and 25 μg of amphotericin B/mL utilizing penicillin G (sodium salt), streptomycin sulfate, and amphotericin B as Fungizone® in 0.85% saline, available from Gibco Laboratories, Grand Island Biological Co., Grand Island, N.Y.). The tissue is then digested in 10-15 mL of an enzyme solution containing collagenase type I, 165 U/mL; elastase type III, 15 U/mL; BSA, 2 mg/mL; and soybean trypsin inhibitor, 0.375 mg/mL, followed by incubation at 37° C. under 5% CO2 atmosphere for 10 to 15 minutes. After this treatment, the outer surface adventitia is removed by peeling with a forceps. The aorta is then longitudinally cut and laid open and the endothelial layer is removed by scraping.
(§3) The medial layer of cells is rinsed in the enzyme solution, and placed in a new 100 mm dish with 10 mL of enzyme solution. The medial layer of cells is minced using a fine pair of scissors and digested for 2-3 hours at 37° C. in 30 mL of fresh enzyme solution. After digestion, the medial tissue is homogenized using a sterile Pasteur pipette with a fire polished tip or an Eppendorf pipetter with a 200-1000 μL sterile pipette tip. The suspension is then centrifuged for 10 minutes at 8000 rpm and the pellet is suspended in 4-6 mL of fresh enzyme solution and plated onto 4-6 100 mm flasks with vented caps. The cells are then allowed to grow to confluence and split using 0.25% trypsin. The cells are evaluated for purity and overall quality using antibody to SMC actin.
(§4) The cells are assayed in early passage (generally passage 3-7) at sub-confluent conditions. Cultures are grown in 16 mm (24 well) multi-well culture dishes in media 199 supplemented with 10% fetal bovine serum and 2% antibiotic/antimycotic. At subconfluence, the cells are placed in a defined serum free, lymphocyte medium (AIM-V; Gibco) for 24-48 hours prior to initiating the experimental protocol.
(§5) The standard test procedure is initiated by addition of the test compound, ^3 H-thymidine and serum or a specific growth factor to the serum deprived synchronized cells. Growth factor and serum stimulations are optimized for each cell type. The test compounds are added to each well at 50 fold dilution (20 μL/well) and the plates are incubated for 24-36 hours at 37° C. in 5% CO2 atmosphere. Test compounds are dissolved in 50% ethanol and assayed at 1, 10, and 100 μM. As a control, RG 50872 (Bilder, G. A.; et al., Am. J. Cell Physiol., 1991; 260: C721) is routinely assayed under the conditions of each cell preparation at a concentration of 5 μM.
(§6) At the completion of the experiment, the plates are placed on ice, washed three times with ice cold PBS and incubated in ice cold 10% trichloroacetic acid (TCA) for 30 minutes to remove acid soluble proteins. […]
(§7) Data is quantitated by subjecting the vials to a scintillation counter, in triplicate, for both control and experimental samples. […] Data is expressed as a percent of control from which IC50 s are determined.

[2] = Cytotoxicity, commercial modification of the MTT assay; assay type: cell-based, porcine; settings: pig, smooth muscle cells, medium without serum, 24 hours at 37° C., no drug = 100% viable
Method: To distinguish cytotoxicity from the ability of a compound to prevent proliferation, the test compounds were examined using a commercial modification of the MTT assay. Briefly, cells were grown in 24 well plates to 70-80% confluency. The cells were serum deprived for 24-48 hours prior to initiation of the experimental protocol. To insure that the MTT assay monitored toxicity rather than proliferation, the cells were incubated with […] test compound in fresh medium without serum for 24 hours at 37° C. in a humidified CO2 incubator. Upon completion of the compound treatment, MTT indicator dye was added for 4 hours at 37° C. Cells were then solubilized and aliquots from each well were transferred to a 96-well plate for analysis. Absorbance at 570 nm wavelength with a reference wavelength of 630 nm was recorded using an ELISA plate reader. Results are reported as percent viable using no drug (100% viable) and pre-solubilization (0% viable) standards.

[3] = test system: porcine aortic smooth muscle cells; experiment: Inhibition of PDGF-stimulated porcine aortic smooth muscle cell proliferation (3H-thymidine); assay type: cell-based; settings: Sus scrofa; stimulated with human recombinant PDGF-AB; 24-36 hours at 37° C.; assayed at 1, 10, and 100 μM; read-out: Porcine Smooth Muscle Cell Antiproliferation IC50 or % Inhibition at × Concentration, PDGF
Method: as §1, §2, §3, §4, §5, §6, §7

Compound	pIC50 [1]	viability at 24 h [2] [%]	pIC50 [3]
Fc1cc2[nH]c(SCc3ccc(Cl)c(Cl)c3)nc2cc1Cl [Example 1, 5(6)-Chloro-2-(3,4-dichlorobenzylsulfanyl)-6(5)-fluoro-1H-benzoimidazole]	4.63	100	6.21 to 7.22
O=[N+]([O-])c1ccc2[nH]c(SCc3ccc(Cl)c(Cl)c3)nc2c1 [Example 2, 2-(3,4-Dichlorobenzylsulfanyl)-5-nitro-1H-benzoimidazole]	5.00	100	6.00 to 6.92
Clc1ccc(CSc2nc3ccccc3[nH]2)cc1Cl [Example 3, 2-(3,4-Dichlorobenzylsulfanyl)-1H-benzoimidazole]	4.92	100	5.36
COC(=O)c1ccc(CSc2nc3ccccc3[nH]2)cc1 [Example 4, 4-(1H-Benzoimidazol-2-ylsulfanylmethyl)-benzoic acid methyl ester]	5.82	100	5.43
COC(=O)c1ccc(CSc2nc3cc([N+](=O)[O-])ccc3[nH]2)cc1 [Example 5, 4-(5-Nitro-1H-benzoimidazol-2-ylsulfanylmethyl)-benzoic acid methyl ester]	4.74	100	5.21
